Data reported in US20230320995A1, “IONIZABLE CATIONIC LIPIDS AND LIPID NANOPARTICLES” (CAPSTAN THERAPEUTICS, INC., priority 2022, published 2023).
Where two headings read alike, the source gives them in different places.

What was measured:
[1] = physical-chemical properties of LNP encapsulating mCherry mRNA; type: physicochemical; details: for Encapapsulation Efficiency / PDI (polydispersity index): LNP 50:10:38.5:1.5, mCherry mRNA; for Encapapsulation Efficiency / Hydrodynamic diameter: N/P 6; for PDI (polydispersity index) / Hydrodynamic diameter: DLS; for Hydrodynamic diameter: LNP: ionizable lipid/DSPC/cholesterol/DMG-PEG2000 50:10:38.5:1.5, mCherry mRNA, pH 7.4 Tris, 25° C.
Description: The mRNA was encapsulated in LNP using a self-assembly process in which an aqueous solution of mRNA at pH=3.5 is rapidly mixed with a solution of lipids dissolved in ethanol, then followed by stepwise phosphate and Tris buffer dilution and tangential flow filtration (TFF) purification. LNP composition in this study was: ionizable cationic lipid/distearoylphosphatidylcholine/cholesterol/DMG-PEG2000 (50:10:38.5:1.5 mol/mol) and were encapsulated at an N/P ratio (the ratio of positively-chargeable lipid amine (N=nitrogen) groups to negatively-charged nucleic acid phosphate (P) groups) at 6. LNPs were frozen at −80° C. […] The diameter of the nanoparticles was measured by dynamic light scattering using a Zetasizer Nano ZS (Malvern Instruments Ltd., Malvern, UK) instrument. Size measurement was carried out in pH 7.4 Tris buffer at 25° C. in relevant disposable capillary cells. A non-invasive back scatter system (NIBS) with a scattering angle of 173° was used for size measurements.

[2] = ex vivo stability in mouse plasma; type: in vitro ADME; details: CD-1 mouse plasma, 37° C., 1 μM lipid
Protocol: To determine the stability of the disclosed lipids in mouse plasma lipid stock solution was prepared by dissolution of the lipid in isopropanol at the concentration of 5 mg/mL. A requisite volume of the lipid-isopropanol solution was then diluted to 100 μM concentration at a total volume of 10.0 mL with 50:50 (v/v) ethanol/water. Ten microliters of this 100 μM solution was spiked into 10.0 mL of mouse plasma (BioIVT, Lot MSE394920, CD-1 mouse, anticoagulant: sodium heparin, not filtered) that was prewarmed to 37° C. and stirred at 50 rpm with a magnetic stir bar. The starting concentration of lipids in plasma was thus 1 μM. Aliquots (50 μL) were taken after 0, 15, 30, 45, 60, and 120 minutes, transferred to microcentrifuge tubes and quenched with three volumes (150 μL) of ice cold acetonitrile/methanol (4:1). Positive control incubations utilized the same plasma, with Benfluorex (1 μM) as the substrate with Labetalol (1.0 μgl) as the in situ disappearance. The quenched solutions were vortexed, centrifuged for 5 minutes at 13,000 rpm, and supernatant (100 μL) transferred to a 96-well plate and diluted with water (200 μL, 0.1% FA). After filtration through a 0.45 μm 96-well filtering plate, the filtrates were analyzed by LC-MS (Waters AQUITY I-class UPLC system, ThermoScientific Vanquish UPLC system consisting of a binary pump, autosampler, and column compartment, Waters Xevo G2-XS QT of mass spectrometer; Phenomenex F5, 1.7 μm, 2.1×50 mm column). Mobile phase A was 0.1% formic acid in water, and mobile phase B was 0.1% formic acid in acetonitrile. The flow rate was 0.6 mL/min. Elution gradient was as follows: time, 0.5 min: 20% B; 0.5-2 min: 20-100% B; 2-4.8 min: 100% B; 4.8-5.45 min: 100-20% B. Mass spectrometry was in positive scanning mode from 600-1100 m/z. The peak of the molecular ion of the lipids was integrated in extracted ion chromatography (XIC) using Xcalibur software (Thermo Fisher). The relative peak area compared to T=0, after normalization by the peak area of the internal standard, was used as the percentage of the lipid remaining at each time point. T1/2 values were calculated using the first-order decay model.

[3] = apparent pKa of ionizable lipid in lipid nanoparticle, TNS assay; type: physicochemical; details: for ΔpKa: difference of calculated and measured pKa; for pKa: TNS assay
Protocol: c Log D and c-pKa were calculated as noted above. The measured pKa of a lipid was determined as formulated in a lipid nanoparticle using the TNS assay as described in the following Example.
The apparent pKa of ionizable lipid in the lipid nanoparticle was determined using 6-(p-toluidino)-2-naphthalenesulfonic acid sodium salt (TNS salt, Toronto Research Chemicals, Toronto, ON, Canada). Lipid nanoparticles were diluted in 1×Dulbecco's PBS to a concentration of 1 mM total lipids. TNS salt was prepared as a 1 mg/mL stock solution in DMSO and then further diluted using distilled water to a working solution of 60 μg/mL ([…]). Diluted lipid nanoparticle samples were further diluted to 90 μM total lipids in 165 μL of buffered solution containing 10 mM HEPES, 10 mM MES, 10 mM ammonium acetate, 130 mM NaCl, and final TNS concentration of 1.33 μg/mL (4 μM) with the pH ranging from 3.5 to 12.2. Following pipette mixing and incubation at room temperature in the dark for 15 min, fluorescence intensity was measured at room temperature in a BioTek Synergy H1 plate reader using excitation and emission wavelengths of 321 and 445 nm, respectively. The fluorescence signal was blank subtracted and plotted as a function of the pH, then analyzed using a nonlinear (Boltzmann) regression analysis with the apparent pKa determined as the pH giving rise to half maximal fluorescence intensity as calculated by the Henderson-Hasselbalch equation.

[4] = physical-chemical properties of CD5-targeted tLNP encapsulating mCherry mRNA; type: physicochemical; details: for Hydrodynamic diameter: anti-CD5 tLNP: ionizable lipid/DSPC/cholesterol/DMG-PEG 2000/DSPE-PEG2000-Maleimide 50:10:38.5:1.4:0.1; for Hydrodynamic diameter / PDI (polydispersity index): DLS; for PDI (polydispersity index) / Encapsulation Efficiency: anti-CD5 tLNP; for Encapsulation Efficiency: RiboGreen assay
Description: CleanCap® mCherry 5-methoxyuridine (5moU) mRNA (L-7203) was purchased from TriLink. mRNA was encapsulated in LNP using a self-assembly process in which an aqueous solution of mRNA at pH=3.5 is rapidly mixed with a solution of lipids dissolved in ethanol, then followed by stepwise phosphate and Tris buffer dilution and TFF purification. LNP composition in this study was: ionizable cationic lipid/distearoylphosphatidylcholine/cholesterol/DMG-PEG 2000/distearoylphosphatidyl ethanolamine(DSPE)-PEG2000-Maleimide (50:10:38.5:1.4:0.1 mol/mol) and were encapsulated at an N/P ratio (the ratio of positively-chargeable […] amine (N=nitrogen) groups to negatively-charged nucleic acid phosphate (P) groups) at 6. The hydrodynamic diameter of the nanoparticles was measured by dynamic light scattering using a Zetasizer Nano ZS (Malvern Instruments Ltd., Malvern, UK) instrument.
Next, an anti-CD5 mAb was conjugated to the above LNP to generate tLNP. Purified rat anti-mouse CD5 antibody, clone 53-7.3 (BioLegend), was coupled to LNP via N-succinimidyl S-acetylthioacetate (SATA)-maleimide conjugation chemistry. Briefly, LNPs with DSPE-PEG(2000)-maleimide incorporated were formulated and stored at 4° C. on the day of conjugation. The antibody was modified with SATA (Sigma-Aldrich) to introduce sulfhydryl groups at accessible lysine residues allowing conjugation to maleimide. SATA was deprotected using 0.5 M hydroxylamine followed by removal of the unreacted components by G-25 Sephadex Quick Spin Protein columns (Roche Applied Science, Indianapolis, IN). The reactive sulfhydryl group on the antibody was then conjugated to maleimide moieties on the LNPs using thioether conjugation chemistry. Purification was performed using Sepharose CL-4B gel filtration columns (Sigma-Aldrich). tLNPs (LNPs conjugated with a targeting antibody) were frozen at −80° C. Others have conjugated antibody to free functionalized PEG-lipid and then incorporated the conjugated lipid into pre-formed LNP.
mRNA content was determined using a Quant-iT™ RiboGreen RNA assay kit (Invitrogen™). Encapsulation efficiency was calculated by determining the unencapsulated mRNA content by measuring the fluorescence intensity (Fi) upon the addition of RiboGreen reagent to the LNP and comparing this value to the total fluorescence intensity (Ft) of the RNA content that is obtained upon lysis of the LNPs by 1% Triton X-100, where % encapsulation=(Ft−Fi)/Ft x 100).
The particle size (hydrodynamic diameter) and polydispersity index of the targeted lipid nanoparticles were determined using dynamic light scattering (DLS) on a Malvern Zetasizer Nano ZS (Malvern Instruments, Worcestershire, UK). Size measurement was carried out in pH 7.4 Tris buffer at 25° C. in relevant disposable capillary cells. A non-invasive back scatter system (NIBS) with a scattering angle of 173° was used for size measurements.

[5] = ionizable lipid in tLNP, read-out: Measured pKa
[6] = measured, lipid formulated in a lipid nanoparticle, read-out: pKa

SMILES	Encapapsulation Efficiency [1] [%]	PDI (polydispersity index) [1]	Hydrodynamic diameter [1] [nm]	ex vivo Mouse Plasm Stability % Remaining at 2 Hours [2] [%]	ΔpKa [3]	pKa [3, 5]	pKa [3, 6]	Hydrodynamic diameter [4] [nm]	PDI (polydispersity index) [4]	Encapsulation Efficiency [4] [%]
CCCCCCCCC(=O)OCC(COC(=O)CCCCCCCC)CC(=O)OCCN(CCOC(=O)CC(COC(=O)CCCCCCCC)COC(=O)CCCCCCCC)C(=O)N(C)CCN(C)C [Compound A-14]	91	0.03	127	61	0.91	7.46	7.46	100	0.05	95
CCCCCCCCC(=O)OCC(COC(=O)CCCCCCCC)CC(=O)OCCN(CCOC(=O)CC(COC(=O)CCCCCCCC)COC(=O)CCCCCCCC)C(=O)OCCCN(C)C [Compound A-12]	91	0.04	104	85	1.91	7.35	7.35	98	0.07	92
CCCCCCCCC(=O)OCC(COC(=O)CCCCCCCC)CC(=O)OCCN(CCOC(=O)CC(COC(=O)CCCCCCCC)COC(=O)CCCCCCCC)C(=O)NCCN(C)C [Compound A-13]	99		101	64	0.80	7.51	7.51	100	0.10	99
CCCCCCCCC(=O)OCC(COC(=O)CCCCCCCC)CC(=O)OCCN(CCOC(=O)CC(COC(=O)CCCCCCCC)COC(=O)CCCCCCCC)C(=O)N(C)CCCN(C)C [Compound A-15]	99	0.07	97	69	1.18	8.37	8.37	136	0.15	98
